We go through 24 compounds from patent publication US9045461B2, “Phenyl-heteroaryl derivatives and methods of use thereof” (TransTech Pharma, LLC, priority 2010, dated 2015).

Structures can show the parent of a compound that is named as a salt.

Assay [1] addresses T1, sRAGE binding to β-amyloid (Homo sapiens, UniProt Q15109).
T1 construct: extracellular domain can be isolated by proteolysis of RAGE to generate soluble RAGE (sRAGE) comprised of the V and C domains
The assay can be described thus: RAGE binding assay (ELISA), β-amyloid as the RAGE ligand. As to conditions: compounds tested in hydrochloride salt form, concentration at which 50% signal has been inhibited. As for the experimental part: (§1) The following assay method may be used to identify compounds of Formula (I) or pharmaceutically acceptable salts thereof which are useful as inhibitors of binding of physiological RAGE ligands, such as S100b and β-amyloid, to RAGE.
(§2) S100b, β-amyloid, or CML (500 ng/100 μL/well) in 100 mM sodium bicarbonate/sodium carbonate buffer (pH 9.8) is loaded onto the wells of a NUNC Maxisorp flat bottom 96-well microtitre plate. The plate is incubated at 4° C. overnight. The wells are aspirated and treated with 50 mM imidazole buffer saline (pH 7.2) (with 5 mM CaCl2/MgCl2) containing 1% bovine serum albumin (BSA) (300 μL/well) for 1 h at RT. The wells are aspirated.
(§3) Test compounds are dissolved in nanopure water (concentration: 10-100 μM). DMSO may be used as co-solvent. 25 μL of test compound solution in 4% DMSO is added, along with 75 μL sRAGE (6 nM FAC) to each well and samples are incubated for 1 h at 37° C. The wells are washed several times with 155 mM NaCl pH 7.2 buffer saline and are soaked for several seconds between each wash.
(§4) Non-radioactive detection is performed by adding:
(§5) 10 μL Biotinylated goat F(ab′)2 Anti-mouse IgG. (8.0×10-4 mg/mL, FAC), 5 μL Alk-phos-Streptavidin (3×10-3 mg/mL FAC), 0.42 μL per 5 mL Monoclonal antibody for sRAGE (FAC 6.0×10-3 mg/mL) to 5 mL 50 mM imidazole buffer saline (pH 7.2) containing 0.2% bovine serum albumin and 5 mM CaCl2. The mixture is incubated for 30 minutes at RT.
(§6) 100 μL of complex is added to each well and incubation is allowed to proceed at rt for 1 h. Wells are washed several times with wash buffer and soaked several seconds between each wash. 100 μL 1 mg/mL (pNPP) in 1 M diethanolamine (pH adjusted to 9.8 with HCl) is added. Color is allowed to develop in the dark for 30 min to 1 h at rt. The reaction is quenched with 10 μL of stop solution (0.5-1.0 N NaOH in 50% ethanol) and the absorbance is measured spectrophotometrically with a microplate reader at 405 nm.
(§7) The IC50 (μM) value in the ELISA assay represents the concentration of compound at which 50% signal has been inhibited.

A further assay concerns the target T2, sRAGE binding to S100b (Homo sapiens, UniProt Q15109).
T2 construct: extracellular domain can be isolated by proteolysis of RAGE to generate soluble RAGE (sRAGE) comprised of the V and C domains
Briefly: RAGE binding assay (ELISA), S100b as the RAGE ligand. As to conditions: compounds tested in hydrochloride salt form, concentration at which 50% signal has been inhibited. As for the experimental part: as §1, §2, §3, §4, §5, §6, §7

T1 sequence (Q15109 23-342 limits assumed): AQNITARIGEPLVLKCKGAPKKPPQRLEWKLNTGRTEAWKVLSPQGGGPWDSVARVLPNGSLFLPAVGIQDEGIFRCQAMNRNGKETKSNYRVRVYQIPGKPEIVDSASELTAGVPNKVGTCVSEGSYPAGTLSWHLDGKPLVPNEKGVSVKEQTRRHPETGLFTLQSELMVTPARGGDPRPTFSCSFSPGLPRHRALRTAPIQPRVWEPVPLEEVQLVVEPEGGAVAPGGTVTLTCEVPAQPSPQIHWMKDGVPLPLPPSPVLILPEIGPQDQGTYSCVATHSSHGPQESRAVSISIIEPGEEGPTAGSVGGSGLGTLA
T2 sequence (Q15109 23-342 limits assumed): as above

Regarding `CCCCc1nnc(O[C@@H]2CCN(C)C2)cc1-c1ccc(OC2CCCCC2)cc1` [Example 29, 3-Butyl-4-(4-cyclohexyloxy-phenyl)-6-((R)-1-methyl-pyrrolidin-3-yloxy)-pyridazine dihydrochloride], the half-maximal inhibitory concentration (IC50) in assay [1] was determined as 2360 nM; at sRAGE binding to S100b, 1720 nM.

Consider `CCCCc1nnc(C(=O)N[C@H]2CN3CCC2CC3)cc1-c1ccc(OC2CCCCC2)cc1` [Example 86, (R)-6-Butyl-5-(4-cyclohexyloxy-phenyl)-pyridazine-3-carboxylic acid (1-aza-bicyclo[2.2.2]oct-3-yl)-amide dihydrochloride], for which the IC50 is 1020 nM in assay [1] and 1920 nM on sRAGE binding to S100b.

For `CCCCc1nnc(OC2CCN(C)CC2)cc1-c1ccc(OCc2ccccc2)cc1` [Example 1, 4-(4-enzyloxy-phenyl)-3-butyl-6-(1-methyl-piperidin-4-yloxy)-pyridazine dihydrochloride], the values for the 50% inhibitory concentration (IC50) (in assay [1]; at sRAGE binding to S100b) were 1090 nM and 950 nM, respectively.

As to `CCCCc1nnc(C(=O)NCC2CCN(C)CC2)cc1-c1ccc(OCc2ccccc2)cc1` [Example 81, 5-(4-Benzyloxy-phenyl)-6-butyl-pyridazine-3-carboxylic acid (1-methyl-piperidin-4-ylmethyl)-amide dihydrochloride], the half-maximal inhibitory concentration (IC50) is 1540 nM in assay [1] and 1820 nM on sRAGE binding to S100b.

In the case of `CCCCc1nnc(C(=O)NC[C@H]2CCCN2CC)cc1-c1ccc(OC2CCCCC2)cc1` [Example 91, 6-Butyl-5-(4-cyclohexyloxy-phenyl)-pyridazine-3-carboxylic acid ((R)-1-ethyl-pyrrolidin-2-ylmethyl)-amide dihydrochloride], the half-maximal inhibitory concentration (IC50) in assay [1] was found to be 1390 nM; at sRAGE binding to S100b, 1140 nM.

Take `CCCCc1nnc(O[C@@H]2CN(C)CC[C@H]2C(F)F)cc1-c1ccc(OC2CCCCC2)cc1` (racemic) [Example 48, (±)-trans-3-butyl-4-(4-cyclohexyloxy-phenyl)-6-(4-difluoromethyl-1-methyl-piperidin-3-yloxy)-pyridazine dihydrochloride]: the IC50 in assay [1] stood at 8960 nM; at sRAGE binding to S100b, 2600 nM.

As to `CCCc1nnc(OC2CCN(C)CC2)cc1-c1ccc(OCc2ccccc2)cc1` [Example 12, 4-(4-Benzyloxy-phenyl)-6-(1-methyl-piperidin-4-yloxy)-3-propyl-pyridazine dihydrochloride], the IC50 was found to be 1540 nM in assay [1] and 1190 nM on sRAGE binding to S100b.

Consider `CCCCc1nnc(C(=O)NCC2(F)CCN(C)CC2)cc1-c1ccc(OC2CCCCC2)cc1` [Example 109, 6-Butyl-5-(4-cyclohexyloxy-phenyl)-pyridazine-3-carboxylic acid (4-fluoro-1-methyl-piperidin-4-ylmethyl)-amide dihydrochloride], for which the IC50 turned out to be 5830 nM in assay [1] and 5840 nM at sRAGE binding to S100b.

Regarding `CCCCc1nnc(OCCCN2CCCCC2)cc1-c1ccc(OCc2ccccc2)cc1` [Example 5, 4-(4-Benzyloxy-phenyl)-3-butyl-6-(3-piperidin-1-yl-propoxy)-pyridazine dihydrochloride], the 50% inhibitory concentration (IC50) came out at 6280 nM in assay [1] and 3110 nM on sRAGE binding to S100b.

Consider `CCCCc1nnc(C(=O)N[C@H]2CN3CCC2CC3)cc1-c1ccc(OCc2ccccc2)cc1` [Example 83, 5-(4-Benzyloxy-phenyl)-6-butyl-pyridazine-3-carboxylic acid (R)-(1-aza-bicyclo[2.2.2]oct-3-yl)-amide dihydrochloride], for which the IC50 in assay [1] amounted to 1130 nM; at sRAGE binding to S100b, 1180 nM.

For `CCCCc1nnc(OC2CCN(C)CC2)cc1-c1ccc(OC2CCCCC2)c(NC(=O)NC(C)(C)C)c1` [Example 77, 1-tert-Butyl-3-{5-[3-butyl-6-(1-methyl-piperidin-4-yloxy)-pyridazin-4-yl]-2-cyclohexyloxy-phenyl}-urea dihydrochloride], the IC50 was determined as 660 nM in assay [1] and 680 nM at sRAGE binding to S100b.

For the compound `CN1CCC(Oc2cc(-c3ccc(OC4CCCCC4)cc3)c(C3CC3)nn2)CC1` [Example 59, 4-(4-cyclohexyloxy-phenyl)-3-cyclopropyl-6-(1-methyl-piperidin-4-yloxy)-pyridazine dihydrochloride], the values for the IC50 (in assay [1]; at sRAGE binding to S100b) were 3160 nM and 4790 nM, respectively.

As to `CCCCc1nnc(C(=O)NC[C@H](O)CN(C)C)cc1-c1ccc(OC2CCCCC2)cc1` [Example 87, 6-Butyl-5-(4-cyclohexyloxy-phenyl)-pyridazine-3-carboxylic acid ((S)-3-dimethylamino-2-hydroxy-propyl)-amide dihydrochloride], the figures for the IC50 (in assay [1]; at sRAGE binding to S100b) were 2430 nM and 1970 nM, respectively.

For the compound `CCCCc1nnc(OC2CCN(C)CC2)cc1-c1ccc(OC2CCCCC2)c(C(=O)OC)c1` [Example 71, 5-[3-Butyl-6-(1-methyl-piperidin-4-yloxy)-pyridazin-4-yl]-2-cyclohexyloxy-benzoic acid methyl ester dihydrochloride], the IC50 in assay [1] came out at 1590 nM; on sRAGE binding to S100b, 1130 nM.

As to `CCCCc1nnc(OCC2CCN(C)C2)cc1-c1ccc(OCc2ccccc2)cc1` (stereo not drawn) [Example 10, 4-(4-Benzyloxy-phenyl)-3-butyl-6-(1-methyl-pyrrolidin-3-ylmethoxy)-pyridazine dihydrochloride], the half-maximal inhibitory concentration (IC50) was found to be 1630 nM in assay [1] and 1520 nM on sRAGE binding to S100b.

For `CCCCc1nnc(C(=O)N[C@H]2CC[C@@H](N(C)C)CC2)cc1-c1ccc(OC2CCCCC2)cc1` [Example 95, (±)-(cis)-6-Butyl-5-(4-cyclohexyloxy-phenyl)-pyridazine-3-carboxylic acid (4-dimethylamino-cyclohexyl)-amide dihydrochloride], the IC50 was determined as 1050 nM in assay [1] and 690 nM at sRAGE binding to S100b.

Regarding `CCCCc1nnc(O[C@H]2CC[C@H](NC)CC2)cc1-c1ccc(OC2CCCCC2)cc1` [Example 37, {4-[6-Butyl-5-(4-cyclohexyloxy-phenyl)-pyridazin-3-yloxy]-cyclohexyl}-methyl-amine dihydrochloride], the IC50 was determined as 1650 nM in assay [1] and 1870 nM at sRAGE binding to S100b.

Consider `CCCCc1nnc(O[C@H]2C[C@H]3CC[C@@H](C2)N3C)cc1-c1ccc(OC2CCCCC2)cc1` [Example 27, endo-3-[6-Butyl-5-(4-cyclohexyloxy-phenyl)-pyridazin-3-yloxy]-8-methyl-8-aza-bicyclo[3.2.1]octane dihydrochloride], for which the IC50 came to 2520 nM in assay [1] and 2690 nM at sRAGE binding to S100b.

Take `CCCCc1nnc(OC2CCN(C)CC2)cc1-c1ccc(OC2CCCCC2)c(OC)c1` [Example 73, 3-Butyl-4-(4-cyclohexyloxy-3-methoxy-phenyl)-6-(1-methyl-piperidin-4-yloxy)-pyridazine dihydrochloride]: the IC50 came to 1040 nM in assay [1] and 1740 nM on sRAGE binding to S100b.

In the case of `CCCCc1nnc(C(=O)NC2CC3CCC(C2)N3C)cc1-c1ccc(OC2CCCCC2)cc1` (stereo not drawn) [Example 96, 6-Butyl-5-(4-cyclohexyloxy-phenyl)-pyridazine-3-carboxylic acid (8-methyl-8-aza-bicyclo[3.2.1]oct-3-yl)-amide dihydrochloride], the IC50 stood at 940 nM in assay [1] and 1160 nM at sRAGE binding to S100b.

Regarding `CCCCc1nnc(C(=O)N[C@H]2CCN(C)C[C@H]2O)cc1-c1ccc(OC2CCCCC2)cc1` (racemic) [Example 112, (±)-cis-6-Butyl-5-(4-cyclohexyloxy-phenyl)-pyridazine-3-carboxylic acid (3-hydroxy-1-methyl-piperidin-4-yl)-amide dihydrochloride], the IC50 in assay [1] came out at 1470 nM; on sRAGE binding to S100b, 1440 nM.

For the compound `CCCCc1nnc(OCCCN(CC)CC)cc1-c1ccc(OCc2ccccc2)cc1` [Example 4, 3-[5-(4-Benzyloxy-phenyl)-6-butyl-pyridazin-3-yloxy]-propyl}-diethyl-mine dihydrochloride], the IC50 is 1240 nM in assay [1] and 1140 nM on sRAGE binding to S100b.

As to `CCCCc1nnc(OCC2CN(C)CCC2(F)F)cc1-c1ccc(OC2CCCCC2)cc1` (stereo not drawn) [Example 39, 3-Butyl-4-(4-cyclohexyloxy-phenyl)-6-(4,4-difluoro-1-methyl-piperidin-3-ylmethoxy)-pyridazine dihydrochloride], the IC50 in assay [1] is 1500 nM; on sRAGE binding to S100b it was 1220 nM.

On to `CCCCc1nnc(OC2CCN(CCC(=O)N(C)C)CC2)cc1-c1ccc(OC2CCCCC2)cc1` [Example 16, 3-{4-[6-Butyl-5-(4-cyclohexyloxy-phenyl)-pyridazin-3-yloxy]-piperidin-1-yl}-N,N-dimethyl-propionamide dihydrochloride], for which the IC50 was 2070 nM in assay [1] and 2170 nM at sRAGE binding to S100b.

By IC50 is commonly meant the concentration needed to halve the response being measured.
